Source: article PMC8509676, “Residual Helicity at the Active Site of the Histidine Phosphocarrier, HPr, Modulates Binding Affinity to Its Natural Partners” (International Journal of Molecular Sciences, 2021)

Experiments:
[1] = test system: Staphylococcus aureus CECT59; format: cell-based; conditions: S. aureus CECT59, two-fold broth microdilution (CLSI), MH broth, 24 h, 37 °C; triplicate (sd = 0); highest concentration tested 400 µM
Method: The CECT59 strain of the Gram-positive bacteria Staphylococcus aureus from the Spanish Type Culture Collection (Colección Española de Cultivos Tipo, CECT, Universitat de Valencia, Spain) was used for determining its sensitivity to the HPr peptides studied in this work. The MIC for each peptide was determined by the two-fold broth microdilution method according to the Clinical and Laboratory Standards Institute (CLSI) guidelines, with some modifications as previously described. For this testing procedure, a bacteria colony previously grown in MH agar plates was isolated and incubated in MH broth at 37 °C overnight to prepare the bacteria inoculum to be used in each assay. Then, the bacteria suspensions were adjusted to a 100× dilution of an 0.5 McFarland turbidity standard in MH broth and incubated with different concentrations of each peptide in round-bottom 96-well polystyrene plates (Deltalab S.L., Rubí, Spain) (50 μL/well) for 24 h at 37 °C. The peptide concentrations employed comprised two-fold dilutions starting at either 120, 160, or 400 µM, depending on the experiment. […] All assays were performed in triplicate.

EIN^sc = EIN^sc (Streptomyces coelicolor, UniProt Q9KZP1); test: biochemical; format: binding
Method: Spectra were collected at 25 °C on a Cary spectrofluorometer (Agilent, Madrid, Spain), with a Peltier temperature controller. The samples were prepared the day before and left overnight at 5 °C. Before measurements, the samples were incubated for 1 h at 25 °C. A quartz cell with a 1 cm path length (Hellma, Kruibeke, Belgium) was used. In all the experiments, the slit widths were equal to 5 nm for both the excitation and emission lights. Protein samples were excited at either 280 or 295 nm. The experiments were performed between 300 and 400 nm. The signal was acquired for 1 s, and the increment of wavelength was set to 1 nm. Appropriate blank corrections were made in all spectra. For the binding experiments, 3 µM of either protein (Rsd^ec or EIN^sc) and 15 µM of the corresponding peptide were mixed. The experiments in aqueous solution were acquired in Tris buffer (50 mM, pH 7.0).
For the titration between either of the two proteins (Rsd^ec or EIN^sc) and the corresponding peptide, increasing amounts of the latter, in a concentration range of 0 to 30 µM, were added to a solution with a fixed concentration of each protein (3 µM). The experimental set-up was identical to that described above, including preparation of the samples the day before and their storage overnight at 5 °C. Before measurements, the samples were incubated for 1 h at 25 °C. The fluorescence of a blank solution containing only the corresponding peptide was subtracted for each data point. […] The Kd was determined by following the fluorescence at selected wavelengths and fitting experimental data to Equation (1). […] At all used concentrations, the fluorescence was corrected by the inner-filter effects.

[2] = biological target: EIN^sc (N-terminal domain of EI^sc) (Streptomyces coelicolor, UniProt Q9KZP1); test: biochemical; format: binding
Method: The experimental set-up and data processing of ITC experiments has been described previously. Rsd^ec or EIN^sc (at 10–20 µM) were injected into the cell, and the peptides in the syringe (100–200 µM) in 50 mM of Tris buffer, pH 7.0. The temperature for all the experiments was 25 °C. Typically, each calorimetric titration consisted of performing 19 injections with 2 μL volume, with a time spacing of 150 s, while stirring at 750 rpm in an Auto-iTC200 high-sensitivity microcalorimeter (MicroCal, Malvern-Panalytical, Malvern, UK). The results were analysed by applying a model that considered a single binding site (assuming a 1:1 stoichiometry) for the peptide/EIN^sc or peptide/Rsd^ec interaction using a nonlinear least-squares regression analysis in Origin 7.0 (OriginLab, Northampton, MA, USA) with user-defined fitting routines.

[3] = aqueous solution; cited from earlier work
From the text: Streptomyces is an actinomycete, Gram-positive organism with high content of G + C base pairs in its genome. We have carried out an extensive description of the structures and conformational stabilities of HPr^sc (O50515) and EI (EI^sc) (Q9KZP1) to understand their binding in the PTS cascade. We have also characterized the interaction of EI^sc with wild-type HPr^sc and that of the phosphorylated species, as well as that of the N-terminal domain of EI^sc (EIN^sc) with intact HPr^sc. We have also shown that the peptide comprising residues Ala9-Gly3 ...

[4] = Translational diffusion NMR (DOSY); format: physicochemical
Method: (b) Translational diffusion NMR (DOSY): Peptide concentrations were the same as those used in the 1D-^1H-NMR spectra. Translational self-diffusion measurements were performed with the pulsed-gradient spin-echo sequence in the presence of 100% D2O. The following relationship existed between the translational self-diffusion coefficient, D, and the delays used during experiment acquisition:(2) I/I0=−exp(DγH2δ^2G^2(Δ−δ/3−τ/2)) where I is the peak intensity of a particular resonance (or a group of them) at any gradient strength; I0 is the maximum peak intensity of the same resonance(s) at the smallest gradient strength (that is, at 2% of the total power of the gradient coil); D is the translational self-diffusion constant (in cm^2 s^−1); δ is the duration (in s) of the gradient; G is the gradient strength (in T cm^−1); ∆ is the time (in s) between the gradients; γH is the gyromagnetic constant of the proton (in rad s^−1 T^−1); and τ is the recovery delay between the bipolar gradients (100 µs in our experiments). The gradient strength (G) was varied in 16 lineal steps, between 2 and 95% of the total power of the gradient coil of the probe. The gradient strength was calibrated by using the value of D for the residual proton water line in a sample containing 100% D2O placed in a 5 mm tube [42]. Data were plotted as I/I0 versus G^2, and the exponential factor of the curve was:(3) DγH2δ^2(Δ−δ/3−τ/2) from which D can be obtained. The duration of the gradient (δ) was 2.25 ms, and the time between the two gradients (∆) was set to 200 ms. The signal from the methyl groups between 1.1 and 0.70 ppm were used for integration of the intensity. A final concentration of 1% of dioxane was added to each peptide; the hydrodynamic radius, Rh, of each peptide was obtained for comparison by assuming that the Rh of dioxane was 2.12 Å [42]. The DOSY experiment was repeated twice with fresh samples for each peptide.

Sequence of EIN^sc (N-terminal domain of EI^sc) (Q9KZP1 1-230): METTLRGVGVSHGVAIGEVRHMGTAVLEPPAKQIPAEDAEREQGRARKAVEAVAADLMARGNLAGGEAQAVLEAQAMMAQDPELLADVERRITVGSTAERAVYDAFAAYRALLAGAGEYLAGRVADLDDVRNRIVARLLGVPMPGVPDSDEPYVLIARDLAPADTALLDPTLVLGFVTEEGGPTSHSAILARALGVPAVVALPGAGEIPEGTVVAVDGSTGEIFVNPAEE
Sequence of EIN^sc (Q9KZP1 1-230): as above

Substance “Ac-GWAEGLHARPASIFVRAATATG-NH2 [Wild-type]” has an MIC [1] of 40 µM, a Kd (EIN^sc) of 10 µM and a Kd [2] of 2.3 ± 0.4 µM. For the same substance, the “ΔH, EIN^sc” value ([2]; ITC, 25 °C, 50 mM Tris pH 7.0) was -0.8 ± 0.4 kcal/mol, the helical population [3] was “about 7%” and the “D (translational diffusion coefficient)” value ([4]; DOSY, 10 °C, 100% D2O, 70-120 µM peptide, fitting errors, repeated twice) was 1.95 ± 0.03 cm^2 s^−1 × 10^6. The “Rh (in parentheses, from DOSY)” value ([4]; from comparison with the Rh of dioxane (2.12 Å)) was 11 ± 1 Å.
